In patent US4490527A, “Benzo-fused heterocyclic anti-ulcer agents” (American Home Products Corporation, priority 1983, dated 1984) one finds duration of action, side effects and ED50 data, which are given here for 1 compound.

Entries after “also recorded” stand apart in the source; their conditions may differ.

The conditions of data set [1]: limitation noted in patients; cited from earlier work.
In the next data set the test system is gastric acid secretion. The data set can be described thus: inhibition of secretion of acidic gastric juice in dogs (Pavlov gastric pouch, fed). The data set is classed as in vivo, dog (beagle). The settings on record: Canis lupus familiaris, po, read-out: ID50 (dose at which there is obtained a 50% inhibition of the total gastric acid output). How it is done:
The procedure for testing the ability of the compounds of the invention to inhibit the secretion of acidic gastric juice in dogs is as follows: A female pure bred beagle (7-10 kg) having Pavlov gastric pouches is fasted overnight with water ad lib. The animal is orally dosed and thirty minutes later it is fed to induce gastric acid secretions. Gastric acid samples are then collected every 15 minutes. The volume of each sample is measured and aliquots are titrated to neutrality with 0.1N NaOH to determine acid concentration.

As for `CN/C(=N/CCSCc1nc[nH]c1C)NC#N` [cimetidine], in data set [1], the duration of action entry is listed as “short duration of action” and the side effects entry is on record as “anti-androgenic activity; also recorded: tendency to cause confusional states in elderly patients”. Besides, the ED50 in the data set with gastric acid secretion was 6 mg/kg.
